Laboratory results taken from patent US20230233567A1, “BELVARAFENIB FOR USE IN CANCER TREATMENT” (Hanmi Pharm. Co., Ltd., priority 2020, published 2023).
Read-outs that look alike come from different tables or passages of the source.

Test: Phase I study plasma pharmacokinetics
Format: in vivo, human
Details: human, plasma; for AUC(0-inf) / AUC(0-t) / Cmax / AUC / Vd/F: mean; for AUC: read-out: AUC24; for Vd/F: read-out: Vz/F; for half-life: read-out: median t1/2 at steady state
Excerpt: The PK parameters of belvarafenib were estimated in 48 patients in the dose-escalation phase and 35 patients in the dose-expansion phase. In the tables: “AUClast” refers to the area under the plasma concentration-time curve from zero time until the last measurable concentration; “AUC0-∞” refers to area under the plasma concentration-time curve from zero time to infinity; “AUC24” refers to the area under the curve from T0 to T24; “Cmax” refers to the maximal concentration; “Tmax” refers to the time to reach Cmax; “T1/2β” refers to the terminal elimination half-life; “QD” refers to once a day; and “BID” refers to twice a day. […] Mean and coefficient of variation are presented except for Tmax where median and range are presented. One patient in the 200 QD dosing regimen who took concomitant rifampin was removed from the analysis because the AUC and Cmax of the patient were much lower than those of the others in the same cohort, which, without being bound to any particular theory, could have resulted from the drug-metabolizing enzyme induction by rifampin through which belvarafenib is biotransformed.

[1] = oral, 600 mg/day, Multiple administrations Day 22, 600 mg/day QD, n=6
[2] = oral, 900 mg/day, Multiple administrations Day 22, 900 mg/day BID, n=7
[3] = oral, 1300 mg/day, Multiple administrations Day 22, 1300 mg/day BID, n=6
[4] = oral, 1600 mg/day, Multiple administrations Day 22, 1600 mg/day BID, n=4
[5] = po, 50 mg/day QD, Day 1 first dose, 50 mg/day QD, n=3
[6] = po, 100 mg/day QD, Day 1 first dose, 100 mg/day QD, n=3
[7] = po, 200 mg, Day 1 first dose, 200 mg/day QD, n=6
[8] = po, 200 mg/day QD, Day 1 first dose, 200 mg/day QD, n=7
[9] = po, 400 mg/day BID, Day 1 first dose, 400 mg/day BID, n=11
[10] = po, 600 mg/day BID, Day 1 first dose, 600 mg/day BID, n=7
[11] = po, 600 mg/day, Day 1 first dose, 600 mg/day BID, n=7
[12] = po, 600 mg/day, Day 1 first dose, 600 mg/day QD, n=6
[13] = po, 900 mg/day, Day 1 first dose, 900 mg/day BID, n=8
[14] = po, 1300 mg/day, Day 1 first dose, 1300 mg/day BID, n=6
[15] = po, 1600 mg/day, Day 1 first dose, 1600 mg/day BID, n=6

Cc1ccc2c(Nc3cccc(Cl)c3F)nccc2c1NC(=O)c1csc2c(N)ncnc12 [Belvarafenib]
AUC(0-inf) [1]: 434000 ng·h/mL | AUC(0-t) [1]: 57600 ng·h/mL | Cmax [1]: 3130 ng/mL | AUC [1]: 58000 ng·h/mL | Vd/F [1]: 241 L | Tmax (oral, 600 mg/day, Multiple administrations Day 22, 600 mg/day QD, n=6, median, read-out: Tmax): 4.1 h | AUC(0-inf) [2]: 322000 ng·h/mL | AUC(0-t) [2]: 126000 ng·h/mL | Cmax [2]: 6090 ng/mL | AUC [2]: 127000 ng·h/mL | Vd/F [2]: 148 L | Tmax (oral, 900 mg/day, Multiple administrations Day 22, 900 mg/day BID, n=7, median, read-out: Tmax): 2.9 h | AUC(0-inf) [3]: 625000 ng·h/mL | AUC(0-t) [3]: 158000 ng·h/mL | Cmax [3]: 7320 ng/mL | AUC [3]: 159000 ng·h/mL | Vd/F [3]: 195 L | Tmax (oral, 1300 mg/day, Multiple administrations Day 22, 1300 mg/day BID, n=6, median, read-out: Tmax): 2 h | AUC(0-inf) [4]: 139000 ng·h/mL | AUC(0-t) [4]: 49200 ng·h/mL | Cmax [4]: 2360 ng/mL | AUC [4]: 49600 ng·h/mL | Vd/F [4]: 871 L | Tmax (oral, 1600 mg/day, Multiple administrations Day 22, 1600 mg/day BID, n=4, median, read-out: Tmax): 5.5 h | Tmax (oral, BID regimens, read-out: Single-dose median Tmax): 15.5 to 24 h | half-life (oral, BID regimens): 32.3 to 66.4 h | Tmax (oral, QD regimens, read-out: Single-dose median Tmax): 3 to 4.5 h | half-life (oral, QD regimens): 65.1 to 106 h | AUC(0-inf) [5]: 27000 ng·h/mL | Cmax [5]: 553 ng/mL | Vd/F [5]: 186 L | Tmax (po, 50 mg/day QD, Day 1 first dose, 50 mg/day QD, n=3, median, read-out: Tmax): 3 h | AUC(0-t) (po, 50 mg/day, Day 1 first dose, 50 mg/day QD, n=3): 13000 ng·h/mL | AUC(0-inf) [6]: 51500 ng·h/mL | Cmax [6]: 807 ng/mL | Vd/F [6]: 215 L | Tmax (po, 100 mg/day QD, Day 1 first dose, 100 mg/day QD, n=3, median, read-out: Tmax): 3 h | AUC(0-t) (po, 100 mg/day, Day 1 first dose, 100 mg/day QD, n=3): 45000 ng·h/mL | AUC(0-inf) [7]: 37800 ng·h/mL | AUC(0-t) [7]: 28800 ng·h/mL | Cmax [7]: 602 ng/mL | Vd/F [7]: 529 L | Tmax (po, 200 mg, Day 1 first dose, 200 mg/day QD, n=6, median, read-out: Tmax): 4.4 h | AUC(0-inf) [8]: 32800 ng·h/mL | Cmax [8]: 549 ng/mL | Vd/F [8]: 550 L | Tmax (po, 200 mg/day QD, Day 1 first dose, 200 mg/day QD, n=7, median, read-out: Tmax): 4.1 h | AUC(0-t) (po, 200 mg/day, Day 1 first dose, 200 mg/day QD, n=7): 25100 ng·h/mL | AUC(0-inf) [9]: 78300 ng·h/mL | Cmax [9]: 900 ng/mL | Vd/F [9]: 758 L | Tmax (po, 400 mg/day BID, Day 1 first dose, 400 mg/day BID, n=11, median, read-out: Tmax): 6.9 h | AUC(0-t) (po, 400 mg/day, Day 1 first dose, 400 mg/day BID, n=11): 62300 ng·h/mL | AUC(0-inf) [10]: 169000 ng·h/mL | AUC(0-t) [10]: 121000 ng·h/mL | AUC(0-t) (po, 600 mg/day QD, Day 1 first dose, 600 mg/day QD, n=6): 71100 ng·h/mL | Cmax [11]: 1210 ng/mL | Vd/F [11]: 884 L | Tmax (po, 600 mg/day, Day 1 first dose, 600 mg/day BID, n=7, median, read-out: Tmax): 24 h | AUC(0-inf) [12]: 84700 ng·h/mL | Cmax [12]: 1320 ng/mL | Vd/F [12]: 798 L | Tmax (po, 600 mg/day, Day 1 first dose, 600 mg/day QD, n=6, median, read-out: Tmax): 4.5 h | AUC(0-inf) [13]: 177000 ng·h/mL | Cmax [13]: 1590 ng/mL | Vd/F [13]: 534 L | Tmax (po, 900 mg/day, Day 1 first dose, 900 mg/day BID, n=8, median, read-out: Tmax): 17 h | AUC(0-t) (po, 1300 mg/day BID, Day 1 first dose, 1300 mg/day BID, n=6): 156000 ng·h/mL | AUC(0-inf) [14]: 225000 ng·h/mL | Cmax [14]: 1790 ng/mL | Vd/F [14]: 708 L | Tmax (po, 1300 mg/day, Day 1 first dose, 1300 mg/day BID, n=6, median, read-out: Tmax): 15.5 h | AUC(0-t) (po, 1600 mg/day BID, Day 1 first dose, 1600 mg/day BID, n=6): 134000 ng·h/mL | AUC(0-inf) [15]: 336000 ng·h/mL | Cmax [15]: 1440 ng/mL | Vd/F [15]: 1700 L | Tmax (po, 1600 mg/day, Day 1 first dose, 1600 mg/day BID, n=6, median, read-out: Tmax): 20.4 h
